Numbers after ± are expanded uncertainties.
Test: xn = mol fraction of the nth substance listed
Conditions: 101 kPa, Liquid; for speed of sound: Single path-length method

CCc1ccccc1 [ethylbenzene] + COC(C)(C)C
Conditions	mass density [kg/m3]	speed of sound [m/s]
288.15 K, x2 = 0	871.245 ± 0.36	1360.7 ± 2.1
288.15 K, x2 = 0.046	866.075 ± 0.39	1348.3 ± 2.1
288.15 K, x2 = 0.106	859.155 ± 0.4	1334.4 ± 2.1
288.15 K, x2 = 0.212	846.925 ± 0.42	1307.2 ± 2.1
288.15 K, x2 = 0.299	836.536 ± 0.43	1284.6 ± 2.1
288.15 K, x2 = 0.402	823.953 ± 0.45	1256.7 ± 2.1
288.15 K, x2 = 0.503	812.763 ± 0.47	1231.4 ± 2.1
288.15 K, x2 = 0.6	799.067 ± 0.49	1201.3 ± 2.1
288.15 K, x2 = 0.701	785.93 ± 0.51	1171.9 ± 2.1
288.15 K, x2 = 0.822	769.744 ± 0.53	1136.2 ± 2.1
288.15 K, x2 = 0.899	759.058 ± 0.55	1112.7 ± 2.1
288.15 K, x2 = 0.948	752.102 ± 0.56	1097.3 ± 2.1
290.65 K, x2 = 0	869.052 ± 0.37	1349.9 ± 2.1
290.65 K, x2 = 0.046	863.868 ± 0.39	1337.6 ± 2.1
290.65 K, x2 = 0.106	856.925 ± 0.4	1323.4 ± 2.1
290.65 K, x2 = 0.212	844.671 ± 0.42	1296.3 ± 2.1
290.65 K, x2 = 0.299	834.249 ± 0.44	1273.7 ± 2.1
290.65 K, x2 = 0.402	821.631 ± 0.45	1245.6 ± 2.1
290.65 K, x2 = 0.503	810.408 ± 0.47	1220.2 ± 2.1
290.65 K, x2 = 0.6	796.665 ± 0.49	1190.1 ± 2.1
290.65 K, x2 = 0.701	783.488 ± 0.51	1160.5 ± 2.1
290.65 K, x2 = 0.822	767.243 ± 0.54	1124.5 ± 2.1
290.65 K, x2 = 0.899	756.516 ± 0.55	1100.7 ± 2.1
290.65 K, x2 = 0.948	749.532 ± 0.56	1085.4 ± 2.1
293.15 K, x2 = 0	866.856 ± 0.37	1339.4 ± 2.1
293.15 K, x2 = 0.046	861.653 ± 0.4	1326.8 ± 2.1
293.15 K, x2 = 0.106	854.698 ± 0.41	1312.7 ± 2.1
293.15 K, x2 = 0.212	842.406 ± 0.42	1285.5 ± 2.1
293.15 K, x2 = 0.299	831.951 ± 0.44	1262.8 ± 2.1
293.15 K, x2 = 0.402	819.3 ± 0.46	1234.6 ± 2.1
293.15 K, x2 = 0.503	808.048 ± 0.47	1209.2 ± 2.1
293.15 K, x2 = 0.6	794.26 ± 0.5	1179 ± 2.1
293.15 K, x2 = 0.701	781.04 ± 0.52	1149.3 ± 2.1
293.15 K, x2 = 0.822	764.736 ± 0.54	1113.2 ± 2.1
293.15 K, x2 = 0.899	753.964 ± 0.56	1089.2 ± 2.1
293.15 K, x2 = 0.948	746.956 ± 0.57	1073.8 ± 2.1
295.65 K, x2 = 0	864.66 ± 0.37	1328.9 ± 2.1
295.65 K, x2 = 0.046	859.445 ± 0.4	1316.3 ± 2.1
295.65 K, x2 = 0.106	852.469 ± 0.41	1302 ± 2.1
295.65 K, x2 = 0.212	840.144 ± 0.43	1274.8 ± 2.1
295.65 K, x2 = 0.299	829.658 ± 0.44	1252 ± 2.1
295.65 K, x2 = 0.402	816.97 ± 0.46	1223.7 ± 2.1
295.65 K, x2 = 0.503	805.684 ± 0.48	1198.2 ± 2.1
295.65 K, x2 = 0.6	791.851 ± 0.5	1167.8 ± 2.1
295.65 K, x2 = 0.701	778.587 ± 0.52	1138.1 ± 2.1
295.65 K, x2 = 0.822	762.221 ± 0.54	1101.8 ± 2.1
295.65 K, x2 = 0.899	751.405 ± 0.56	1077.7 ± 2.1
295.65 K, x2 = 0.948	744.369 ± 0.57	1062.3 ± 2.1
298.15 K, x2 = 0	862.459 ± 0.38	1318.4 ± 2.1
298.15 K, x2 = 0.046	857.231 ± 0.4	1306 ± 2.1
298.15 K, x2 = 0.106	850.237 ± 0.41	1291.4 ± 2.1
298.15 K, x2 = 0.212	837.881 ± 0.43	1264.1 ± 2.1
298.15 K, x2 = 0.299	827.364 ± 0.45	1241.2 ± 2.1
298.15 K, x2 = 0.402	814.636 ± 0.46	1212.7 ± 2.1
298.15 K, x2 = 0.503	803.312 ± 0.48	1187.3 ± 2.1
298.15 K, x2 = 0.6	789.435 ± 0.51	1156.8 ± 2.1
298.15 K, x2 = 0.701	776.124 ± 0.52	1127 ± 2.1
298.15 K, x2 = 0.822	759.695 ± 0.55	1090.5 ± 2.1
298.15 K, x2 = 0.899	748.835 ± 0.56	1066.3 ± 2.1
298.15 K, x2 = 0.948	741.772 ± 0.57	1050.8 ± 2.1
300.65 K, x2 = 0	860.256 ± 0.38	1307.9 ± 2.1
300.65 K, x2 = 0.046	855.014 ± 0.41	1295.8 ± 2.1
300.65 K, x2 = 0.106	848.001 ± 0.42	1280.9 ± 2.1
300.65 K, x2 = 0.212	835.613 ± 0.43	1253.5 ± 2.1
300.65 K, x2 = 0.299	825.064 ± 0.45	1230.5 ± 2.1
300.65 K, x2 = 0.402	812.278 ± 0.47	1201.5 ± 2.1
300.65 K, x2 = 0.503	800.937 ± 0.49	1176.4 ± 2.1
300.65 K, x2 = 0.6	787.011 ± 0.51	1145.7 ± 2.1
300.65 K, x2 = 0.701	773.654 ± 0.53	1115.9 ± 2.1
300.65 K, x2 = 0.822	757.162 ± 0.55	1079.2 ± 2.1
300.65 K, x2 = 0.899	746.257 ± 0.57	1054.9 ± 2.1
300.65 K, x2 = 0.948	739.163 ± 0.58	1039.4 ± 2.1
303.15 K, x2 = 0	858.047 ± 0.38	1297.5 ± 2.1
303.15 K, x2 = 0.046	852.795 ± 0.41	1285.5 ± 2.1
303.15 K, x2 = 0.106	845.762 ± 0.42	1270.4 ± 2.1
303.15 K, x2 = 0.212	833.338 ± 0.44	1242.9 ± 2.1
303.15 K, x2 = 0.299	822.758 ± 0.45	1219.8 ± 2.1
303.15 K, x2 = 0.402	809.93 ± 0.47	1190.7 ± 2.1
303.15 K, x2 = 0.503	798.555 ± 0.49	1165.5 ± 2.1
303.15 K, x2 = 0.6	784.554 ± 0.51	1134.2 ± 2.1
303.15 K, x2 = 0.701	771.175 ± 0.53	1104.8 ± 2.1
303.15 K, x2 = 0.822	754.617 ± 0.56	1068 ± 2.1
303.15 K, x2 = 0.899	743.666 ± 0.57	1043.6 ± 2.1
303.15 K, x2 = 0.948	736.543 ± 0.58	1028 ± 2.1
305.65 K, x2 = 0	–	1287.1 ± 2.1
305.65 K, x2 = 0.046	–	1275.2 ± 2.1
305.65 K, x2 = 0.106	–	1260 ± 2.1
305.65 K, x2 = 0.212	–	1232.4 ± 2.1
305.65 K, x2 = 0.299	–	1209.2 ± 2.1
305.65 K, x2 = 0.402	–	1180 ± 2.1
305.65 K, x2 = 0.503	–	1154.7 ± 2.1
305.65 K, x2 = 0.6	–	1123.2 ± 2.1
305.65 K, x2 = 0.701	–	1093.7 ± 2.1
305.65 K, x2 = 0.822	–	1056.8 ± 2.1
305.65 K, x2 = 0.899	–	1032.3 ± 2.1
305.65 K, x2 = 0.948	–	1016.6 ± 2.1

Source: the NIST ThermoML archive (doi:10.1007/s10765-007-0223-x)
